Measurements from US20210010031A1, “LENTIVIRAL VECTORS FOR HIGH-TITER TRANSDUCTION OF PRIMARY HUMAN CELLS” (priority 2018, published 2021).

How the values were obtained:
HA-tagged FAM208A = HA-tagged FAM208A (Homo sapiens, UniProt Q9UK61); assay: Co-immunoprecipitation of HA-FAM208A with FLAG-Vpx in HEK293 cells; type: binding; conditions: versus untreated cells with wild-type SIVMAC251 Vpx (FIG. 17H)
Excerpt: Degradation of SAMHD1 requires direct interaction with Vpx or Vpr. To determine if Vpx similarly associates with proteins of the HUSH complex, HA-tagged FAM208A was co-transfected into HEK293 cells with FLAG-tagged SIVMAC251 Vpx or SIVRCM02CM8081 Vpx. When anti-FLAG antibody was used to immunoprecipitate either of the two Vpx proteins from the soluble cell lysate, HA-FAM208A was detected in the immunoprecipitate (FIG. 17H). The strength of the FAM208A signal in the Vpx pull-out increased when the co-transfected HEK293 cells were incubated with the proteasome inhibitor PR171, or when wild-type SIVMAC251 Vpx was replaced in the transfection by a mutant (Q76A) that is incapable of binding DCAF1 (FIG. 17H and FIGS. 21D and 21E).
Cells were washed in PBS, counted, normalized for cell number, and lysed directly in 1×SDS-PAGE sample buffer. Samples were run on NuPage 4-12% Bis-Tris gels followed by blotting onto nitrocellulose membranes. Primary antibodies used: FAM208A (Atlas, HPA00875), MPHOSPH8 (Proteintech, 16796-1-AP), PPHLN1 (Sigma, HPA038902), SETDB1 (Proteintech 11231-1-AP), DCAF1 (Proteintech, 11612-1-AP), FLAG (Novus, NB600-345), FLAG (Sigma, F1804, used for IP), and HA (Biolegend, 901501).

Jurkat LTR-gfp cells = assay: HIV-1 LTR-gfp provirus pool in Jurkat T cells; type: cell-based, human; conditions: four weeks after transduction with LTR-GFP (FIG. 22B)
Excerpt: J-Lat A1 was selected to have a silent HIV-1 LTR-driven provirus with the ability to reactivate in response to TNFα^31. The unique provirus within a clone such as J-Lat A1 may be sensitive to position-dependent silencing effects and therefore may not accurately reflect the sensitivity of a population of HIV-1 proviruses to transcriptional activation by Vpx or to silencing by FAM208A. To address the effect of Vpx and FAM208A on a population of proviruses with diverse integration sites, Jurkat T cells were transduced with an HIV-1 LTR driven reporter vector (LTR-gfp) that retains complete LTRs, tat, and rev, but has a frameshift mutation in env, an ngfr reporter gene in place of nef, and gfp in place of gag, pol, vif, and vpr (FIG. 18D). Four weeks after transduction with LTR-GFP, the presence of latent proviruses within the pool of Jurkat cells was confirmed by reactivation with either TNFα or TCR-stimulation (FIG. 22B). […] Compared with control cells, vpx or FAM208A knockdown increased the percentage of GFP cells, whether cells were treated with TNFα or not (FIGS. 18E and 18F). […] Additionally, expression vectors for SIVMND25440 Vpx, SIVRCM02CM8081 Vpx, SIVMND1GB1 Vpr, or […]1 Vpr all increased GFP expression in Jurkat LTR-gfp cells (FIG. 22C). […]
Cells were fixed in BD Cytofix Buffer prior to data acquisition on a BD C6 Accuri. Data was analyzed in FlowJo.

Chain of HA-tagged FAM208A (Q9UK61 whole entry): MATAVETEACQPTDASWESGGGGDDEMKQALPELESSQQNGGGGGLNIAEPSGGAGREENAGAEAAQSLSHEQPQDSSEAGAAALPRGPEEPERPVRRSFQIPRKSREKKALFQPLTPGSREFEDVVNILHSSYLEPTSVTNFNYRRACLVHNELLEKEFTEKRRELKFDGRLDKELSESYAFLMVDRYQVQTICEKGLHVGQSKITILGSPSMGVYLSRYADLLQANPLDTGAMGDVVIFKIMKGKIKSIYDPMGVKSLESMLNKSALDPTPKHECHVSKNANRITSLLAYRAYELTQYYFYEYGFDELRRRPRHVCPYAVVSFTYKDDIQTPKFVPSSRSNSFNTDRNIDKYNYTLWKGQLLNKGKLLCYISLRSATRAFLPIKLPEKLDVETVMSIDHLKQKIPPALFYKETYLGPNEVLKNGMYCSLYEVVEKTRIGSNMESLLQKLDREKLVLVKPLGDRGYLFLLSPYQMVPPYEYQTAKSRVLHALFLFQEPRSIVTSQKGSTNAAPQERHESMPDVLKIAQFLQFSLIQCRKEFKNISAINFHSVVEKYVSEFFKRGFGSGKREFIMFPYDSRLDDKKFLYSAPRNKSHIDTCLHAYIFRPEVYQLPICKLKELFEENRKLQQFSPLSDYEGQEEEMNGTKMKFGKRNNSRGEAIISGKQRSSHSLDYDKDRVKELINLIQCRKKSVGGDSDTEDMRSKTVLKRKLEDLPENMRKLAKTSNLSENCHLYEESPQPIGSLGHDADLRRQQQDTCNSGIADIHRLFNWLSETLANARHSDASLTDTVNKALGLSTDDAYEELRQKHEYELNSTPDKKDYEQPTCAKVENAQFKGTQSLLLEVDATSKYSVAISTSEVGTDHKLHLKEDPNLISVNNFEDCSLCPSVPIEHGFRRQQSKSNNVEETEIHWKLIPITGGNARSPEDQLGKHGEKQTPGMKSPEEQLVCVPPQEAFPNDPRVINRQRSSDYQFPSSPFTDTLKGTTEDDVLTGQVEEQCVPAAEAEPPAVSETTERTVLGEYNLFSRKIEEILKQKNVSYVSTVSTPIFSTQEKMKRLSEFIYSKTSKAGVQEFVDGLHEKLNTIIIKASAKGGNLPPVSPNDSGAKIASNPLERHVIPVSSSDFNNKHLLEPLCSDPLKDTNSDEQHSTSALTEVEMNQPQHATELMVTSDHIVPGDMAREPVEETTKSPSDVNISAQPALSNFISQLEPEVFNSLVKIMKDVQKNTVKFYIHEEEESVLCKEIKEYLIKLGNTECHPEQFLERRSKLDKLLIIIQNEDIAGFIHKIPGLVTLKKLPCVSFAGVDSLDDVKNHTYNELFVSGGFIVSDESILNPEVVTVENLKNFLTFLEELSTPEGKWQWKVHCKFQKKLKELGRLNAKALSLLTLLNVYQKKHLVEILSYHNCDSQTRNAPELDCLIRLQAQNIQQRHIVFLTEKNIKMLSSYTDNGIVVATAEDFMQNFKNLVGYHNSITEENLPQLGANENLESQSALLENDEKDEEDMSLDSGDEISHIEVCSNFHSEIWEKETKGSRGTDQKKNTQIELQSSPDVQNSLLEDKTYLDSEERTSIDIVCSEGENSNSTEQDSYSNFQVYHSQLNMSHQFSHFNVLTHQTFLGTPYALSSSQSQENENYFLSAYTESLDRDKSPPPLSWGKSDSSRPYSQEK

Compound | strength of the FAM208A signal in the Vpx pull-out (HA-tagged FAM208A) | reactivation of latent proviruses (Jurkat LTR-gfp cells)
CC(C)C[C@H](NC(=O)[C@H](CCc1ccccc1)NC(=O)CN1CCOCC1)C(=O)N[C@@H](Cc1ccccc1)C(=O)N[C@@H](CC(C)C)C(=O)[C@@]1(C)CO1 [PR171] | increased | –
TNFα | – | reactivation
